Laboratory results: the Kinase Knowledgebase extract (Sharma et al. 2016)

Biological target: MAPK14 (human) (UniProt Q16539)
Experiment: Assesment of MAPK14 Kinase Activity

Sequence of MAPK14 (human) (Q16539 whole entry, looked up): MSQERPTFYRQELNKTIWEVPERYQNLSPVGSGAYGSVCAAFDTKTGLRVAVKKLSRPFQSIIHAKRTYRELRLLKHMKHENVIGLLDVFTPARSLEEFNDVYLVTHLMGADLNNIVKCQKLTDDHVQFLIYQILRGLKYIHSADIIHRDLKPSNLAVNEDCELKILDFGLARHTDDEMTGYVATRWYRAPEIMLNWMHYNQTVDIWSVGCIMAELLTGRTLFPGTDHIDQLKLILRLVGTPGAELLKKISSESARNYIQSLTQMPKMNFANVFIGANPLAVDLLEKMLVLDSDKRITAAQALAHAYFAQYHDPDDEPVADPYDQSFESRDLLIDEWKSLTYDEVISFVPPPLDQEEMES

SMILES | EC50 [µM]
CC(C)Cn1ncc2cc(Oc3ccc(F)cc3F)c(C(=O)N[C@H]3CCCN(CCO)C3=O)cc21 | ≤ 10
CC(C)Cn1ncc2cc(Oc3ccc(F)cc3F)c(C(=O)N[C@H]3CCCCN(CCO)C3=O)cc21 | ≤ 10
CC(C)Cn1ncc2cc(Oc3ccc(F)cc3F)c(C(=O)N[C@H]3CCCCN(C)C3=O)cc21 | ≤ 10
CC(C)(F)Cn1ncc2cc(Oc3ccc(F)cc3F)c(C(=O)N[C@H]3CCCNC3=O)cc21 | ≤ 10
CC(C)Cn1ncc2cc(Oc3ccc(F)cc3F)c(C(=O)N[C@H]3CCN(CCO)C3=O)cc21 | ≤ 10
CC(C)Cn1ncc2cc(Oc3ccc(F)cc3F)c(C(=O)N[C@H]3CCNC3=O)cc21 | ≤ 10
CC(C)Cn1ncc2cc(Oc3ccc(F)cc3F)c(C(=O)N[C@H]3CCCN(C)C3=O)cc21 | ≤ 10
CC(C)(F)Cn1ncc2cc(Oc3ccc(F)cc3F)c(C(=O)N[C@H]3CCCCNC3=O)cc21 | ≤ 10
CC(C)(O)Cn1ncc2cc(Oc3ccc(F)cc3F)c(C(=O)N[C@H]3CCNC3=O)cc21 | ≤ 10
CC(C)(F)Cn1ncc2cc(Oc3ccc(F)cc3F)c(C(=O)N[C@H]3CCNC3=O)cc21 | ≤ 10

More lines, now with the values ahead:

EC50 [µM] | SMILES
≤ 10 | CC(C)Cn1ncc2cc(Oc3ccc(F)cc3F)c(C(=O)Nc3ccc[nH]c3=O)cc21
≤ 10 | CC(C)(F)Cn1ncc2cc(Oc3ccc(F)cc3F)c(C(=O)ON3C(=O)CCC3=O)cc21
≤ 10 | CC(C)Cn1ncc2cc(Oc3ccc(F)cc3F)c(C(=O)N[C@H]3CCCNC3=O)cc21
≤ 10 | CC(C)Cn1ncc2cc(Oc3ccc(F)cc3F)c(C(=O)N[C@H]3CCN(C)C3=O)cc21
≤ 10 | CC(C)Cn1ncc2cc(Oc3ccc(F)cc3F)c(C(=O)N[C@H]3CCCCNC3=O)cc21
